According to ChEMBL document CHEMBL1150002, “Synthesis and biological activities of new heterocyclic aromatic retinoids” (Bioorg Med Chem Lett, 1997):
Active and inactive are the calls of the source. No cut-off for these calls is given here.

Columns and labels:
F9 [1] = experiment: Compound was tested for its ability to induce differentiation of F9 cells as estimated by plasminogen activator secretion (PA); assay type: functional, cell-based; details: Mus musculus
[2] = biological target: T1, Retinoic acid receptor gamma (Homo sapiens, UniProt P13631); experiment: Binding affinity towards Retinoic acid receptor gamma
T1 sequence (P13631 whole entry): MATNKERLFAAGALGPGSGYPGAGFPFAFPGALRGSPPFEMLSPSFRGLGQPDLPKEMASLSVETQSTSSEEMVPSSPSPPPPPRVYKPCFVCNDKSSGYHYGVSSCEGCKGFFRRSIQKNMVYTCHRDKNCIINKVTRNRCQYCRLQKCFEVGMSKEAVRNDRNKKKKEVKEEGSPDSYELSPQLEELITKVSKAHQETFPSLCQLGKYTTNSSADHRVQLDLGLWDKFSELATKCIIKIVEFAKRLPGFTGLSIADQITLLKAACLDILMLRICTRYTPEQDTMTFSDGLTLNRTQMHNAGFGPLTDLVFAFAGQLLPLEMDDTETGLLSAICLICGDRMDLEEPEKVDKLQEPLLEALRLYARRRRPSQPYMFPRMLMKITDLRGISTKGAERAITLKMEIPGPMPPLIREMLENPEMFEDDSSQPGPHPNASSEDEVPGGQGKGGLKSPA

[3] = biological target: T2, Retinoic acid receptor beta (Homo sapiens, UniProt P10826); experiment: Binding affinity towards Retinoic acid receptor beta
T2 sequence (P10826 whole entry): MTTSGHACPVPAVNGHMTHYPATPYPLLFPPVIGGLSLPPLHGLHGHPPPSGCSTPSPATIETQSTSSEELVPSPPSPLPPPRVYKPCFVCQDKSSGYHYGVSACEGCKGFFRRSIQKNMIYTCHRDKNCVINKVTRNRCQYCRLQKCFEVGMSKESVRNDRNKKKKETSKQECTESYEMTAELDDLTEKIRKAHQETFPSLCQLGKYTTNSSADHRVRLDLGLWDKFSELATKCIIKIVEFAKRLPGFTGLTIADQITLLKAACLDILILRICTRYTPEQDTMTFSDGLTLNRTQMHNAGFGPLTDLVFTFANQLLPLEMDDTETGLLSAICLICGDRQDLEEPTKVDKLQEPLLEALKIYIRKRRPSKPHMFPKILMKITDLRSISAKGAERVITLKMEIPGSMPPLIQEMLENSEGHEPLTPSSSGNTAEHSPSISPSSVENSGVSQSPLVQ

[4] = biological target: T3, Retinoic acid receptor alpha (Homo sapiens, UniProt P10276); experiment: Binding affinity towards Retinoic acid receptor alpha
T3 sequence (P10276 whole entry): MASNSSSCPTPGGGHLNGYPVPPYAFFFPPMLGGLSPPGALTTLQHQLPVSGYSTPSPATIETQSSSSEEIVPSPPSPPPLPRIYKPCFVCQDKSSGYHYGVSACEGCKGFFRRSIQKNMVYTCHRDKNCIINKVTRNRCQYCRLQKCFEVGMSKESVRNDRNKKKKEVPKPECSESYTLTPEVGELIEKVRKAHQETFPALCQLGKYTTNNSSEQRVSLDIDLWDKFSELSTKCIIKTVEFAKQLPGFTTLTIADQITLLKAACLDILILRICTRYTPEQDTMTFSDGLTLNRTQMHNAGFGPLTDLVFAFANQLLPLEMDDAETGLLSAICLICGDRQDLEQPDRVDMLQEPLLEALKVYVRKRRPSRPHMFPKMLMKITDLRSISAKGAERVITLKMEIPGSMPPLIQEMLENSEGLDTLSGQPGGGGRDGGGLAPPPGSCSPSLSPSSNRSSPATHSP

[5] = biological target: T4, Retinoic acid receptor RXR-alpha (Homo sapiens) (UniProt P19793); experiment: Evaluated for RXR-alpha functional transcriptional activation; NA means not active at 1 uM
T4 sequence (whole entry): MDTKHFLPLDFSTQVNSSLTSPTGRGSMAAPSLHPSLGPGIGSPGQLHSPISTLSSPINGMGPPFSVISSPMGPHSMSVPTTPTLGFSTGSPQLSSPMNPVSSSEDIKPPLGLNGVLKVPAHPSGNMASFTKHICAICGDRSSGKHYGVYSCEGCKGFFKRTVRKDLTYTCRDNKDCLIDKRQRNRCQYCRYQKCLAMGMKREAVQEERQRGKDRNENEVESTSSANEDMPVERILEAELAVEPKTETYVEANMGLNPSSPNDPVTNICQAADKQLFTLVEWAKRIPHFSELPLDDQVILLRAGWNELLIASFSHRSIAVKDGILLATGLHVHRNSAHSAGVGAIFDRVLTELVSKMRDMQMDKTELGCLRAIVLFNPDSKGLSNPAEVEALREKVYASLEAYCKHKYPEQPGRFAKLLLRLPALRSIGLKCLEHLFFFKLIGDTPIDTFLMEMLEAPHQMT

F9 [6] = experiment: Compound was tested for its ability to induce differentiation of F9 cells as estimated by plasminogen activator secretion (PA); NA = Not active; assay type: functional, cell-based, Mus musculus

Row | Compound | Ki [2] [nM] | Ki [3] [nM] | Ki [4] [nM] | Activity [5] | AC50 (F9 [1]) [nM] | AC50 (F9 [6])
1 | COc1ccc(-c2ccc3cc(C(=O)O)ccc3c2)cc1C12CC3CC(CC(C3)C1)C2 | – | – | – | inactive | – | –
2 | CC1(C)CCC(C)(C)c2cc(-c3ccc4cc(C(=O)O)ccc4c3)ccc21 | – | – | – | inactive | – | –
3 | O=C(O)c1ccc2c(c1)OCC(c1ccc(O)c(C34C[C@H]5C[C@@H](C3)C[C@@H](C4)C5)c1)=C2 | 148 | > 3000 | 821 | inactive | 107 | –
4 | CC(C)(C)c1cc(-c2ccc3cc(C(=O)O)ccc3c2)ccc1O | – | > 3000 | > 3000 | inactive | – | Not Active
5 | CC(C)(C)c1cc(C2=Cc3ccc(C(=O)O)cc3OC2)cc(C(C)(C)C)c1O | 531 | > 3000 | – | inactive | 305 | –

Further lines, with some results ahead:

Row | Ki [2] [nM] | Ki [3] [nM] | Ki [4] [nM] | Activity [5] | Compound | AC50 (F9 [1]) [nM] | AC50 (F9 [6])
6 | 19 | 36 | 487 | inactive | CC1(C)CCC(C)(C)c2cc(C3=Cc4ccc(C(=O)O)cc4OC3)ccc21 | 58 | –
7 | 1040 | 90 | 5790 | inactive | CC1(C)CCC(C)(C)c2cc(C3COc4cc(C(=O)O)ccc4C3)ccc21 (centres undefined) | 300 | –
8 | > 3000 | > 3000 | > 3000 | inactive | CC(C)(C)c1cc(C2=Cc3ccc(C(=O)O)cc3OC2)ccc1O | – | Not Active
9 | 174 | 71 | 764 | inactive | COc1ccc(C2=Cc3ccc(C(=O)O)cc3OC2)cc1C12C[C@H]3C[C@@H](C1)C[C@@H](C2)C3 | – | –
